Assay results as given in patent publication US5726012A, “Rapid, high capacity nucleic acid based assay” (E. I. du Pont de Nemours and Company, priority 1994, dated 1998).
Values after ≈ are worked out from the molar mass of the structure shown. Read-outs that look alike come from different tables or passages of the source.

Tests used:
[1] = tested on: HIV RF (HIV-1 RNA) in MT-2 cells; test: HIV-1 RNA microtiter plate compound evaluation assay in HIV-1 infected MT-2 cells (gag capture/reporter probes); format: cell-based, HIV-1 (strain RF)
Method: Compounds to be evaluated for antiviral activity were dissolved in DMSO and diluted at least 1:50 in culture medium, to 2× the highest concentration to be tested. Further, three-fold serial dilutions of the compound in culture medium were performed directly in U bottom microtiter plates (Nunc). After compound dilution, MT-2 cells, which had been sub-cultured one day prior to infection, were added to a final concentration of 5×10^5 cells/ml (1×10^5 cells/well). Cells were incubated with compounds in a volume of 150 μl for 30 minutes at 37° C. in a CO2 incubator. For evaluation of antiviral potency, appropriate dilutions of HIV RF virus stock (50 μl) were added to culture wells containing the cells and the dilutions of the compounds to be tested. Eight wells per plate were left uninfected with 50 μl of medium added instead of virus, while eight wells were infected in the absence of any antiviral compound. For evaluation of compound toxicity, parallel plates were cultured without virus infection. After three days of culture at 37° C. in a humidified chamber inside a CO2 incubator, all but 25 μl of medium/well was removed from the HIV infected plates. 37 μl of 5M GED containing the biotinylated capture oligo was added to the remaining medium and settled cells in each well to a final concentration of 3M GED, 50 nM biotinylated capture oligo. Hybridization of the biotinylated capture oligo to HIV-1 RNA in the cell lysate was carried out in the same microplate well by sealing the plate and incubating for 16-20 hours in a 37° C. incubator. 124 μl of distilled water was added to each well to dilute the hybridization reaction three-fold, and 150 μl aliquots of this diluted mixture was transferred to streptavidin coated microtiter plate wells. The biotin oligo-RNA complex solution was incubated with the immobilized streptavidin for two hours at room temperature, after which the plates were washed six times with DuPont ELISA plate wash buffer (phosphate buffered saline (PBS)/0.05% Tween 20) with a Denley plate washer. A second hybridization was carried out by adding 120 μl of hybridization cocktail containing 4× standard saline citrate (0.15M NaCl, 0.015 sodium citrate) (SSC), 0.66% Triton X-100 and 6.66% deionized formamide, 1 mg/ml bovine serum albumin (BSA) and 5 nM `gag` AP reporter oligo to each well. After hybridization for one hour at 37° C., the plate was again washed six times in PBS/0.05% Tween 20. Alkaline phosphatase activity was detected by addition of 100 μl of substrate detection buffer, consisting of: 0.2 mM 4-methylumbelliferyl phosphate (MUBP, JBL Scientific) in 2.5M diethanolamine pH 8.9 (JBL), 10 mM MgCl2, 5 mM Zinc acetate dihydrate, and 5 mM n-hydroxyethyl-ethylene-diamine-triaceticacid. The plates were incubated at 37° C. and the fluorescence produced measured in a microplate fluorometer (Dynateck) exciting at 365 nm and emitting at 450 nm. A standard curve, prepared by adding known amounts of pDAB 72 in vitro RNA transcript to wells containing lysed, uninfected cells, was run on each microtiter plate.
In order to standardize the virus innoculum used in the evaluation of compounds for anti-vital efficacy, a dose response to ddC was determined at several different dilutions of each virus stock to be used. A dilution of each stock of HIV RF virus stock which gaven an IC90 for ddC of 0.2 ug/ml was selected and used in subsequent compound evaluation assays.
The microtiter plate compound evaluation assay described in Example 9 above was employed to evaluate the efficacy of cyclohexamide, di-deoxycytidine (ddC) and XJ104 (N,N'-bis[tert-butoxycarbonyl-valyl]-1,6-diphenyl-2S,5S-diamino-3R,4R-dihydroxy(triphenylphosphine adduct)-hexane) as described in WO91/18866, the disclosure of which is hereby incorporated by reference, utilizing the HIV-1 `gag` capture and reporter probes described in Example 2.
In the figures below the IC90 and TC50 are indicated. […]

[2] = MTT dye reduction cytotoxicity assay on parallel uninfected MT-2 cultures; format: cell-based, human; details: human
Method: (§1) Compounds to be evaluated for antiviral activity were dissolved in DMSO and diluted at least 1:50 in culture medium, to 2× the highest concentration to be tested. Further, three-fold serial dilutions of the compound in culture medium were performed directly in U bottom microtiter plates (Nunc). After compound dilution, MT-2 cells, which had been sub-cultured one day prior to infection, were added to a final concentration of 5×10^5 cells/ml (1×10^5 cells/well). Cells were incubated with compounds in a volume of 150 μl for 30 minutes at 37° C. in a CO2 incubator. For evaluation of antiviral potency, appropriate dilutions of HIV RF virus stock (50 μl) were added to culture wells containing the cells and the dilutions of the compounds to be tested. Eight wells per plate were left uninfected with 50 μl of medium added instead of virus, while eight wells were infected in the absence of any antiviral compound. For evaluation of compound toxicity, parallel plates were cultured without virus infection. After three days of culture at 37° C. in a humidified chamber inside a CO2 incubator, all but 25 μl of medium/well was removed from the HIV infected plates. […] Alkaline phosphatase activity was detected by addition of 100 μl of substrate detection buffer, consisting of: 0.2 mM 4-methylumbelliferyl phosphate (MUBP, JBL Scientific) in 2.5M diethanolamine pH 8.9 (JBL), 10 mM MgCl2, 5 mM Zinc acetate dihydrate, and 5 mM n-hydroxyethyl-ethylene-diamine-triaceticacid. The plates were incubated at 37° C. and the fluorescence produced measured in a microplate fluorometer (Dynateck) exciting at 365 nm and emitting at 450 nm. […]
(§2) In order to assess the potential cytotoxicity of compounds being evaluated for antiviral efficacy, an MTT dye reduction assay was performed at the end of the three day culture period on the parallel, uninfected, but compound treated cultures. […] Solubilized MTT dye product was quantitated using an ELISA microplate reader at 570 nm. […]

MT-2 cells = test: as above; format: cell-based, human; details: uninfected MT-2 cells, three days culture; 50% reduction of absorbance at 570 nm in MTT assay; 4320 min
Method: as §1, §2

[3] = TC50 to IC90 ratio of greater than 3 regarded as antiviral efficacy

| Compound | IC90 ([1]; Human immunodeficiency virus 1, MT2, 72 h, read-out: IC90 in the RNA assay) | specific anti-viral efficacy (IC90 in RNA assay compared with TC50 in MTT assay) [1, 3] | CC50 at 72 h ([2]; uninfected MT-2 cells, three days culture, 50% reduction of absorbance at 570 nm in MTT assay, read-out: TC50) | specific anti-viral efficacy (IC90 in RNA assay compared with TC50 in MTT assay) [1] | IC90 ([1]; Human immunodeficiency virus 1, MT2, 72 h, HIV RF infected MT-2 cells, three days culture, 90% reduction of HIV-1 RNA, FIGS. 4-6, read-out: IC90 in the RNA assay) | IC90 ([1]; Human immunodeficiency virus 1, MT2, selected dilution of each HIV RF virus stock, read-out: IC90 for ddC used to standardize virus innoculum) | CC50 at 72 h ([2]; mt-2 cells) | IC90 in the RNA assay ([1]; HIV RF infected MT-2 cells, three days culture, 90% reduction of HIV-1 RNA, FIGS. 4-6) | TC50 (MT-2 cells) |
| --- | --- | --- | --- | --- | --- | --- | --- | --- | --- |
| C[C@@H]1C[C@@H]([C@H](O)CC2CC(=O)NC(=O)C2)C(=O)[C@@H](C)C1 [cyclohexamide] | 0.45 µg/mL (≈ 1.6 µM) | no specific anti-viral efficacy is apparent | 0.45 µg/mL (≈ 1.6 µM) |  |  |  |  |  |  |
| Nc1ccn([C@H]2CC[C@@H](CO)O2)c(=O)n1 [ddC, di-deoxycytidine] |  |  |  | displays anti-viral efficacy | 0.13 µg/mL (≈ 0.615 µM) | 0.2 µg/mL (≈ 0.947 µM) | > 50 µg/mL |  |  |
| N,N'-bis[tert-butoxycarbonyl-valyl]-1,6-diphenyl-2S,5S-diamino-3R,4R-dihydroxy(triphenylphosphine adduct)-hexane [XJ104] |  | no specific anti-viral efficacy is apparent |  |  |  |  |  | 30 µg/mL | 2 µg/mL |
